Measurements taken from US20160158179A1, “NANOEMULSION THERAPEUTIC COMPOSITIONS AND METHODS OF USING THE SAME” (THE REGENTS OF THE UNIVERSITY OF MICHIGAN, priority 2008, published 2016).
Values after ≈ are worked out from the molar mass of the structure shown.

Columns and labels:
[1] = test system: H. influenzae clinical isolates; experiment: MIC and MBC susceptibility assays (CLSI); type: cell-based, Haemophilus influenzae; conditions: for MIC 50: Haemophilus influenzae, all H. influenzae strains of Table 6, control antibiotics
[2] = test system: H. influenzae clinical isolates; conditions: ATCC H. influenzae 49247 quality control isolate; acceptable QC range; cited from earlier work
Acinetobacter baumannii = experiment: MIC and MBC determination (CLSI, alamar blue); conditions: Acinetobacter
Pseudomonas aeruginosa = experiment: MIC and MBC determination (CLSI, alamar blue), CF isolates; conditions: Pseudomonas
Burkholderia cenocepacia = experiment: as above
[3] = test system: Stenotrophomonas maltophilia; experiment: as above; conditions: Stenotrophomonas
[4] = test system: methicillin-resistant Staphylococcus aureus (MRSA) clinical isolates; experiment: MIC and MBC susceptibility assays (CLSI); type: cell-based; conditions: for MIC50 (15): value at rank 15 of 29; for MIC50(26): value at rank 26 of 29
[5] = test system: Pseudomonas, Burkholderia, Acinetobacter and Stenotrophomonas; experiment: MIC and MBC determination (CLSI, alamar blue), all strains of Example 8
Stenotrophomonas strains = experiment: Checkerboard synergy study (FIC/FBC index); type: cell-based, Stenotrophomonas maltophilia; conditions: in combination with P4075EC+EDTA
Acinetobacter strains = experiment: Checkerboard synergy study (FIC/FBC index); type: cell-based, Acinetobacter baumannii; conditions: in combination with P4075EC+EDTA
Burkholderia strains = experiment: Checkerboard synergy study (FIC/FBC index); type: cell-based, Burkholderia cenocepacia; conditions: in combination with P4075EC+EDTA
[6] = share of 10 Stenotrophomonas strains with synergy
[7] = share of 10 Acinetobacter strains with synergy
[8] = share of 10 Burkholderia strains with synergy
[9] = MBC analysis table, silver nitrate column

CC1(C)S[C@@H]2[C@H](NC(=O)[C@H](N)c3ccccc3)C(=O)N2[C@H]1C(=O)O [Amp, ampicillin]
MIC 50 [1]: > 32 µg/mL | QC MIC range [2]: B (QC MIC range is 2-8) μg/ml

CC[C@H]1OC(=O)[C@H](C)[C@@H](O[C@H]2C[C@@](C)(OC)[C@@H](O)[C@H](C)O2)[C@H](C)[C@@H](O[C@@H]2O[C@H](C)C[C@H](N(C)C)[C@H]2O)[C@](C)(O)C[C@@H](C)CN(C)[C@H](C)[C@@H](O)[C@]1(C)O [Azi, azithromycin]
susceptibility of the majority of isolates by MIC90 values [1]: susceptible | MIC 50 [1]: 2 µg/mL (≈ 2.67 µM) | QC MIC range [2]: A (QC MIC range is 1-4) μg/ml

CO[C@@]1(NC(=O)Cc2cccs2)C(=O)N2C(C(=O)O)=C(COC(N)=O)CS[C@@H]21 [Cefoxitin]
MIC 50 (Acinetobacter baumannii): >256 µg/mL | MIC 90 (Acinetobacter baumannii): >256 µg/mL | MIC 50 (Pseudomonas aeruginosa): >256 µg/mL | MIC 90 (Pseudomonas aeruginosa): >256 µg/mL | MIC 90 (Burkholderia cenocepacia; Burkholderia): 256 µg/mL (≈ 599 µM) | MIC 50 [3]: >256 µg/mL | MIC 90 [3]: >256 µg/mL

CC(C)(O/N=C(\C(=O)N[C@@H]1C(=O)N2C(C(=O)[O-])=C(C[n+]3ccccc3)CS[C@H]12)c1csc(N)n1)C(=O)O [Ceftazidime]
MIC 50 (Acinetobacter baumannii): >32 µg/mL | MIC 90 (Acinetobacter baumannii): >32 µg/mL | MIC 90 (Burkholderia cenocepacia; Burkholderia): 16 µg/mL (≈ 29.3 µM) | MIC 50 (Burkholderia cenocepacia; Burkholderia cenocepacia): 8 µg/mL (≈ 14.6 µM) | MIC 90 (Burkholderia cenocepacia; Burkholderia cenocepacia): 16 µg/mL (≈ 29.3 µM) | MIC 50 [3]: >32 µg/mL | MIC 90 [3]: >32 µg/mL

CCC[C@@H]1C[C@@H](C(=O)N[C@@H]([C@H]2O[C@H](SC)[C@H](O)[C@@H](O)[C@H]2O)[C@H](C)Cl)N(C)C1 [Cli, clindamycin]
MIC 50 [1]: 16 µg/mL (≈ 37.6 µM)

C[C@H]1c2cccc(O)c2C(O)=C2C(=O)[C@]3(O)C(O)=C(C(N)=O)C(=O)[C@@H](N(C)C)[C@@H]3[C@@H](O)[C@@H]21 [Dox]
MIC50 (15) ([4]; MRSA clinical isolates): 0.25 µg/mL (≈ 0.563 µM)

CC[C@H]1OC(=O)[C@H](C)[C@@H](O[C@H]2C[C@@](C)(OC)[C@@H](O)[C@H](C)O2)[C@H](C)[C@@H](O[C@@H]2O[C@H](C)C[C@H](N(C)C)[C@H]2O)[C@](C)(O)C[C@@H](C)C(=O)[C@H](C)[C@@H](O)[C@]1(C)O [Eryth]
MIC50 (15) ([4]; MRSA clinical isolates): 64 µg/mL (≈ 87.2 µM)

C[C@@H](O)[C@H]1C(=O)N2C(C(=O)O)=C(SCCN=CN)C[C@H]12 [Imipenem]
MIC 50 [3]: >32 µg/mL | MIC 90 [5]: ≥ 2 µg/mL

C[C@H]1COc2c(N3CCN(C)CC3)c(F)cc3c(=O)c(C(=O)O)cn1c23 [Levo]
MIC50 (15) ([4]; MRSA clinical isolates): 8 µg/mL (≈ 22.1 µM)

C[C@H]1COc2c(N3CCN(C)CC3)c(F)cc3c(=O)c(C(=O)O)cn1c23 [Levofloxacin]
MIC 50 (Acinetobacter baumannii): 16 µg/mL (≈ 44.3 µM) | MIC 90 (Acinetobacter baumannii): >16 µg/mL | MIC 50 (Pseudomonas aeruginosa): 0.5 µg/mL (≈ 1.38 µM) | MIC 90 (Pseudomonas aeruginosa): 8 µg/mL (≈ 22.1 µM) | MIC 90 (Burkholderia cenocepacia; Burkholderia): 8 µg/mL (≈ 22.1 µM) | MIC 50 (Burkholderia cenocepacia; Burkholderia cenocepacia): 2 µg/mL (≈ 5.53 µM) | MIC 90 (Burkholderia cenocepacia; Burkholderia cenocepacia): 8 µg/mL (≈ 22.1 µM) | MIC 50 [3]: 2 µg/mL (≈ 5.53 µM) | MIC 90 [3]: 8 µg/mL (≈ 22.1 µM)

Cc1onc(-c2ccccc2)c1C(=O)N[C@@H]1C(=O)N2[C@@H]1SC(C)(C)[C@@H]2C(=O)O [Ox]
MIC50 (15) ([4]; MRSA clinical isolates): >16 µg/mL

CN(C)[C@@H]1C(O)=C(C(N)=O)C(=O)[C@@]2(O)C(O)=C3C(=O)c4c(O)cccc4[C@@](C)(O)[C@H]3C[C@@H]12 [Tetracycline]
MIC 50 [1]: 2 µg/mL (≈ 4.5 µM)

NC[C@H]1O[C@H](O[C@H]2[C@H](O)[C@@H](O[C@H]3O[C@H](CO)[C@@H](O)[C@H](N)[C@H]3O)[C@H](N)C[C@@H]2N)[C@H](N)C[C@@H]1O [Tobra]
FIC (Stenotrophomonas strains; isolate NB42): 0.14 | Synergy (FBC) (Stenotrophomonas strains; isolate NB42): indifferent | Synergy (FIC) (Stenotrophomonas strains; isolate NB42): yes | FIC (Stenotrophomonas strains; isolate NB43): 1.40 | Synergy (FBC) (Stenotrophomonas strains; isolate NB43): indifferent | Synergy (FIC) (Stenotrophomonas strains; isolate NB43): indifferent | FIC (Stenotrophomonas strains; isolate NB44): 1.5 | Synergy (FBC) (Stenotrophomonas strains; isolate NB44): indifferent | Synergy (FIC) (Stenotrophomonas strains; isolate NB44): indifferent | FBC (Stenotrophomonas strains; isolate NB45): 1.50 | FIC (Stenotrophomonas strains; isolate NB45): 0.97 | Synergy (FBC) (Stenotrophomonas strains; isolate NB45): indifferent | Synergy (FIC) (Stenotrophomonas strains; isolate NB45): indifferent | % FBC Synergy (Stenotrophomonas strains; [6]): 0% | % FIC Synergy (Stenotrophomonas strains; [6]): 20% | FBC (Acinetobacter strains; isolate NB31): 1.50 | FIC (Acinetobacter strains; isolate NB31): 0.98 | Synergy (FBC) (Acinetobacter strains; isolate NB31): no | Synergy (FIC) (Acinetobacter strains; isolate NB31): indifferent | FBC (Acinetobacter strains; isolate NB32): 1.79 | FIC (Acinetobacter strains; isolate NB32): 0.88 | Synergy (FBC) (Acinetobacter strains; isolate NB32): no | Synergy (FIC) (Acinetobacter strains; isolate NB32): indifferent | FBC (Acinetobacter strains; isolate NB33): 1.75 | FIC (Acinetobacter strains; isolate NB33): 1.27 | Synergy (FBC) (Acinetobacter strains; isolate NB33): no | Synergy (FIC) (Acinetobacter strains; isolate NB33): indifferent | FBC (Acinetobacter strains; isolate NB34): 0.24 | FIC (Acinetobacter strains; isolate NB34): 0.41 | Synergy (FBC) (Acinetobacter strains; isolate NB34): yes | Synergy (FIC) (Acinetobacter strains; isolate NB34): yes | FBC (Acinetobacter strains; isolate NB35): 1.44 | FIC (Acinetobacter strains; isolate NB35): 1.21 | Synergy (FBC) (Acinetobacter strains; isolate NB35): no | Synergy (FIC) (Acinetobacter strains; isolate NB35): indifferent | FIC (Acinetobacter strains; isolate NB36): 3.30 | Synergy (FBC) (Acinetobacter strains; isolate NB36): no | Synergy (FIC) (Acinetobacter strains; isolate NB36): indifferent | FBC (Acinetobacter strains; isolate NB37): 1.72 | FIC (Acinetobacter strains; isolate NB37): 0.75 | Synergy (FBC) (Acinetobacter strains; isolate NB37): no | Synergy (FIC) (Acinetobacter strains; isolate NB37): indifferent | FIC (Acinetobacter strains; isolate NB38): 1.05 | Synergy (FBC) (Acinetobacter strains; isolate NB38): no | Synergy (FIC) (Acinetobacter strains; isolate NB38): indifferent | FBC (Acinetobacter strains; isolate NB39): 3.52 | FIC (Acinetobacter strains; isolate NB39): 3.30 | Synergy (FBC) (Acinetobacter strains; isolate NB39): no | Synergy (FIC) (Acinetobacter strains; isolate NB39): indifferent | FBC (Acinetobacter strains; isolate NB40): 3.01 | FIC (Acinetobacter strains; isolate NB40): 3.01 | Synergy (FBC) (Acinetobacter strains; isolate NB40): no | Synergy (FIC) (Acinetobacter strains; isolate NB40): indifferent | % FBC Synergy (Acinetobacter strains; [7]): 10% | % FIC Synergy (Acinetobacter strains; [7]): 10% | FBC (Burkholderia strains; isolate NB21): 0.48 | FIC (Burkholderia strains; isolate NB21): 0.27 | Synergy (FBC) (Burkholderia strains; isolate NB21): yes | Synergy (FIC) (Burkholderia strains; isolate NB21): yes | FIC (Burkholderia strains; isolate NB22): 0.35 | Synergy (FBC) (Burkholderia strains; isolate NB22): indifferent | Synergy (FIC) (Burkholderia strains; isolate NB22): yes | Synergy (FBC) (Burkholderia strains; isolate NB23): indifferent | Synergy (FIC) (Burkholderia strains; isolate NB23): indifferent | Synergy (FBC) (Burkholderia strains; isolate NB24): indifferent | Synergy (FIC) (Burkholderia strains; isolate NB24): indifferent | FBC (Burkholderia strains; isolate NB25): 0.99 | Synergy (FBC) (Burkholderia strains; isolate NB25): indifferent | Synergy (FIC) (Burkholderia strains; isolate NB25): indifferent | FBC (Burkholderia strains; isolate NB26): 0.92 | FIC (Burkholderia strains; isolate NB26): 0.12 | Synergy (FBC) (Burkholderia strains; isolate NB26): indifferent | Synergy (FIC) (Burkholderia strains; isolate NB26): yes | Synergy (FBC) (Burkholderia strains; isolate NB27): indifferent | Synergy (FIC) (Burkholderia strains; isolate NB27): indifferent | FIC (Burkholderia strains; isolate NB28b): 0.54 | Synergy (FBC) (Burkholderia strains; isolate NB28b): indifferent | Synergy (FIC) (Burkholderia strains; isolate NB28b): yes | FBC (Burkholderia strains; isolate NB29): 0.07 | FIC (Burkholderia strains; isolate NB29): 0.32 | Synergy (FBC) (Burkholderia strains; isolate NB29): yes | Synergy (FIC) (Burkholderia strains; isolate NB29): yes | FBC (Burkholderia strains; isolate NB30): 0.54 | FIC (Burkholderia strains; isolate NB30): 0.27 | Synergy (FBC) (Burkholderia strains; isolate NB30): yes | Synergy (FIC) (Burkholderia strains; isolate NB30): yes | % FBC Synergy (Burkholderia strains; [8]): 30% | % FIC Synergy (Burkholderia strains; [8]): 50%

CN[C@H](CC(C)C)C(=O)N[C@H]1C(=O)N[C@@H](CC(N)=O)C(=O)N[C@H]2C(=O)N[C@H]3C(=O)N[C@H](C(=O)N[C@H](C(=O)O)c4cc(O)cc(O)c4-c4cc3ccc4O)[C@H](O)c3ccc(c(Cl)c3)Oc3cc2cc(c3O[C@@H]2O[C@H](CO)[C@@H](O)[C@H](O)[C@H]2O[C@H]2C[C@](C)(N)[C@H](O)[C@H](C)O2)Oc2ccc(cc2Cl)[C@H]1O [Vanco]
MIC50 (15) ([4]; MRSA clinical isolates): 1 µg/mL (≈ 0.69 µM)

CCC[C@@H]1C[C@@H](C(=O)N[C@@H]([C@H]2O[C@H](SC)[C@H](O)[C@@H](O)[C@H]2O)[C@H](C)Cl)N(C)C1 [clind]
MIC50 (15) ([4]; MRSA clinical isolates): >64 µg/mL

C[C@H]1c2cccc(O)c2C(O)=C2C(=O)[C@]3(O)C(O)=C(C(N)=O)C(=O)[C@@H](N(C)C)[C@@H]3[C@@H](O)[C@@H]21 [doxycyline, doxycycline]
MIC 90 ([4]; clinical isolates of MRSA): 4 µg/mL (≈ 9 µM)

O=[N+]([O-])[O-].[Ag+] [silver nitrate]
MIC50 (15) [4, 9]: 0.0025 µg/mL | MIC50(26) [4, 9]: >0.01 µg/mL | MIC 90 ([4]; clinical isolates of MRSA): 0.00063% | MIC50 (15) ([4]; silver nitrate column): 0.00031 µg/mL | MIC50(26) ([4]; silver nitrate column): 0.00063 µg/mL

CN[C@H](CC(C)C)C(=O)N[C@H]1C(=O)N[C@@H](CC(N)=O)C(=O)N[C@H]2C(=O)N[C@H]3C(=O)N[C@H](C(=O)N[C@H](C(=O)O)c4cc(O)cc(O)c4-c4cc3ccc4O)[C@H](O)c3ccc(c(Cl)c3)Oc3cc2cc(c3O[C@@H]2O[C@H](CO)[C@@H](O)[C@H](O)[C@H]2O[C@H]2C[C@](C)(N)[C@H](O)[C@H](C)O2)Oc2ccc(cc2Cl)[C@H]1O [vancomycin]
bactericidal activity (MBC90 compared to MIC90) ([4]; clinical isolates of MRSA): bactericidal
